Measured values reported in PubChem BioAssay AID1963827 (Molecular Pharmacology Branch, DTP, NCI, 2024).

Test system: 994946-033-R-J1-PDC complex spheroid viability
Assay: Anticancer human tumor 994946-033-R-J1-PDC patient-derived melanoma cell line growth inhibition [POLQ]
Settings: for IC50: curve of first compound; for viability, T/C: stronger effect = lower value
Procedure, shortened: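 Growth inhibition in 3D: complex spheroids (tumor PDC, HUVEC, MSC) treated with POLQ inhibitor combinations; where Cmax unknown, highest tested concentration 10 microM, except SN-38 at 1 microM.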

[1] = second compound 0.0316 µM, first compound 0.0316 µM
[2] = second compound 0.0316 µM, first compound 0.1 µM
[3] = second compound 0.0316 µM, first compound 0.316 µM
[4] = second compound 0.0316 µM, first compound 1 µM
[5] = second compound 0.0316 µM, first compound 3.16 µM
[6] = second compound 0.0316 µM, first compound 10 µM
[7] = second compound 0.1 µM, first compound 0.0316 µM
[8] = second compound 0.1 µM, first compound 0.1 µM
[9] = second compound 0.1 µM, first compound 0.316 µM
[10] = second compound 0.1 µM, first compound 1 µM
[11] = second compound 0.1 µM, first compound 3.16 µM
[12] = second compound 0.1 µM, first compound 10 µM
[13] = second compound 0.316 µM, first compound 0.0316 µM
[14] = second compound 0.316 µM, first compound 0.1 µM
[15] = second compound 0.316 µM, first compound 0.316 µM
[16] = second compound 0.316 µM, first compound 1 µM
[17] = second compound 0.316 µM, first compound 3.16 µM
[18] = second compound 0.316 µM, first compound 10 µM
[19] = second compound 1 µM, first compound 0.0316 µM
[20] = second compound 1 µM, first compound 0.1 µM
[21] = second compound 1 µM, first compound 0.316 µM
[22] = second compound 1 µM, first compound 1 µM
[23] = second compound 1 µM, first compound 3.16 µM
[24] = second compound 1 µM, first compound 10 µM
[25] = second compound 3.16 µM, first compound 0.0316 µM
[26] = second compound 3.16 µM, first compound 0.1 µM
[27] = second compound 3.16 µM, first compound 0.316 µM
[28] = second compound 3.16 µM, first compound 1 µM
[29] = second compound 3.16 µM, first compound 3.16 µM
[30] = second compound 3.16 µM, first compound 10 µM
[31] = second compound 10 µM, first compound 0.0316 µM
[32] = second compound 10 µM, first compound 0.1 µM
[33] = second compound 10 µM, first compound 0.316 µM
[34] = second compound 10 µM, first compound 1 µM
[35] = second compound 10 µM, first compound 3.16 µM
[36] = second compound 10 µM, first compound 10 µM
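Further: spheroids exposed to drugs for 7 days.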
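Wherever viability, T/C is given: 100% = DMSO vehicle treated spheroids.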

## CC(=O)O[C@H]1C(=O)[C@@]2(C)[C@H]([C@H](OC(=O)c3ccccc3)[C@]3(O)C[C@H](OC(=O)[C@H](O)[C@@H](NC(=O)c4ccccc4)c4ccccc4)C(C)=C1C3(C)C)[C@]1(OC(C)=O)CO[C@@H]1C[C@@H]2O + COC1C(OC(N)=O)C(O)C(Oc2ccc3c(O)c(NC(=O)c4ccc(O)c(CC=C(C)C)c4)c(=O)oc3c2C)OC1(C)C
Second compound 0.0316 µM
  IC50: < 9.49 nM
Second compound 0.1 µM
  IC50: < 9.49 nM
Second compound 0.316 µM
  IC50: < 9.49 nM
Second compound 1 µM
  IC50: < 9.49 nM
Second compound 3.16 µM
  IC50: < 9.49 nM
Second compound 10 µM
  IC50: < 9.49 nM
Second compound 0.0316 µM, first compound 0.00949 µM
  viability, T/C: 23.9%
Second compound 0.0316 µM, first compound 0.03 µM
  viability, T/C: 25.3%
Second compound 0.0316 µM, first compound 0.0949 µM
  viability, T/C: 16.4%
Second compound 0.0316 µM, first compound 0.3 µM
  viability, T/C: 12.5%
Second compound 0.0316 µM, first compound 0.949 µM
  viability, T/C: 12%
Second compound 0.0316 µM, first compound 3 µM
  viability, T/C: 10.4%
Second compound 0.1 µM, first compound 0.00949 µM
  viability, T/C: 24.4%
Second compound 0.1 µM, first compound 0.03 µM
  viability, T/C: 20.5%
Second compound 0.1 µM, first compound 0.0949 µM
  viability, T/C: 14.5%
Second compound 0.1 µM, first compound 0.3 µM
  viability, T/C: 11.9%
Second compound 0.1 µM, first compound 0.949 µM
  viability, T/C: 14.2%
Second compound 0.1 µM, first compound 3 µM
  viability, T/C: 9.19%
Second compound 0.316 µM, first compound 0.00949 µM
  viability, T/C: 20.4%
Second compound 0.316 µM, first compound 0.03 µM
  viability, T/C: 23.3%
Second compound 0.316 µM, first compound 0.0949 µM
  viability, T/C: 23.7%
Second compound 0.316 µM, first compound 0.3 µM
  viability, T/C: 17.2%
Second compound 0.316 µM, first compound 0.949 µM
  viability, T/C: 15.4%
Second compound 0.316 µM, first compound 3 µM
  viability, T/C: 14.9%
Second compound 1 µM, first compound 0.00949 µM
  viability, T/C: 22.8%
Second compound 1 µM, first compound 0.03 µM
  viability, T/C: 18%
Second compound 1 µM, first compound 0.0949 µM
  viability, T/C: 17.1%
Second compound 1 µM, first compound 0.3 µM
  viability, T/C: 18.5%
Second compound 1 µM, first compound 0.949 µM
  viability, T/C: 14.7%
Second compound 1 µM, first compound 3 µM
  viability, T/C: 10.9%
Second compound 3.16 µM, first compound 0.00949 µM
  viability, T/C: 23.8%
Second compound 3.16 µM, first compound 0.03 µM
  viability, T/C: 20.4%
Second compound 3.16 µM, first compound 0.0949 µM
  viability, T/C: 19.9%
Second compound 3.16 µM, first compound 0.3 µM
  viability, T/C: 15.4%
Second compound 3.16 µM, first compound 0.949 µM
  viability, T/C: 15.1%
Second compound 3.16 µM, first compound 3 µM
  viability, T/C: 11.3%
Second compound 10 µM, first compound 0.00949 µM
  viability, T/C: 21.5%
Second compound 10 µM, first compound 0.03 µM
  viability, T/C: 26%
Second compound 10 µM, first compound 0.0949 µM
  viability, T/C: 16.2%
Second compound 10 µM, first compound 0.3 µM
  viability, T/C: 12.8%
Second compound 10 µM, first compound 0.949 µM
  viability, T/C: 14.9%
Second compound 10 µM, first compound 3 µM
  viability, T/C: 8.96%

## COc1cc(C2c3cc4c(cc3C(OC3OC5COC(C)OC5C(O)C3O)C3COC(=O)C23)OCO4)cc(OC)c1O (stereo unspecified) + COC1C(OC(N)=O)C(O)C(Oc2ccc3c(O)c(NC(=O)c4ccc(O)c(CC=C(C)C)c4)c(=O)oc3c2C)OC1(C)C
Second compound 0.0316 µM
  IC50: 690 nM
Second compound 0.1 µM
  IC50: 237 nM
Second compound 0.316 µM
  IC50: 254 nM
Second compound 1 µM
  IC50: 539 nM
Second compound 3.16 µM
  IC50: 274 nM
Second compound 10 µM
  IC50: 588 nM
[1]
  viability, T/C: 77.1%
[2]
  viability, T/C: 78.6%
[3]
  viability, T/C: 46%
[4]
  viability, T/C: 61%
[5]
  viability, T/C: 12.8%
[6]
  viability, T/C: 6.71%
[7]
  viability, T/C: 95.9%
[8]
  viability, T/C: 58.9%
[9]
  viability, T/C: 44%
[10]
  viability, T/C: 38.7%
[11]
  viability, T/C: 13%
[12]
  viability, T/C: 7.35%
[13]
  viability, T/C: 118%
[14]
  viability, T/C: 70.7%
[15]
  viability, T/C: 40.2%
[16]
  viability, T/C: 36.7%
[17]
  viability, T/C: 14.5%
[18]
  viability, T/C: 6.69%
[19]
  viability, T/C: 88.3%
[20]
  viability, T/C: 67.1%
[21]
  viability, T/C: 63.5%
[22]
  viability, T/C: 41.2%
[23]
  viability, T/C: 18.5%
[24]
  viability, T/C: 7.04%
[25]
  viability, T/C: 109%
[26]
  viability, T/C: 60.7%
[27]
  viability, T/C: 53.2%
[28]
  viability, T/C: 36.3%
[29]
  viability, T/C: 10.2%
[30]
  viability, T/C: 7.78%
[31]
  viability, T/C: 111%
[32]
  viability, T/C: 70.2%
[33]
  viability, T/C: 57.8%
[34]
  viability, T/C: 52.3%
[35]
  viability, T/C: 14.9%
[36]
  viability, T/C: 5.69%

## O=c1[nH]cc(F)c(=O)[nH]1 + COC1C(OC(N)=O)C(O)C(Oc2ccc3c(O)c(NC(=O)c4ccc(O)c(CC=C(C)C)c4)c(=O)oc3c2C)OC1(C)C
Second compound 0.0316 µM
  IC50: > 10000 nM
Second compound 0.1 µM
  IC50: 8300 nM
Second compound 0.316 µM
  IC50: 7080 nM
Second compound 1 µM
  IC50: > 10000 nM
Second compound 3.16 µM
  IC50: 8980 nM
Second compound 10 µM
  IC50: > 10000 nM
[1]
  viability, T/C: 86%
[2]
  viability, T/C: 130%
[3]
  viability, T/C: 113%
[4]
  viability, T/C: 76%
[5]
  viability, T/C: 60.7%
[6]
  viability, T/C: 53.7%
[7]
  viability, T/C: 91.2%
[8]
  viability, T/C: 93.2%
[9]
  viability, T/C: 102%
[10]
  viability, T/C: 82%
[11]
  viability, T/C: 61.7%
[12]
  viability, T/C: 47.4%
[13]
  viability, T/C: 133%
[14]
  viability, T/C: 99.6%
[15]
  viability, T/C: 100%
[16]
  viability, T/C: 71%
[17]
  viability, T/C: 45.3%
[18]
  viability, T/C: 53.5%
[19]
  viability, T/C: 87.6%
[20]
  viability, T/C: 102%
[21]
  viability, T/C: 91.8%
[22]
  viability, T/C: 57%
[23]
  viability, T/C: 53.7%
[24]
  viability, T/C: 53.9%
[25]
  viability, T/C: 124%
[26]
  viability, T/C: 113%
[27]
  viability, T/C: 83.7%
[28]
  viability, T/C: 65.9%
[29]
  viability, T/C: 60.6%
[30]
  viability, T/C: 50.4%
[31]
  viability, T/C: 108%
[32]
  viability, T/C: 114%
[33]
  viability, T/C: 90.5%
[34]
  viability, T/C: 81.1%
[35]
  viability, T/C: 58.6%
[36]
  viability, T/C: 61.5%
